Reference: patent US11987572B2, “Therapeutic compounds and methods of use thereof” (REGENTS OF THE UNIVERSITY OF MINNESOTA, priority 2019, dated 2024)
Like-named read-outs stand apart in the source and are kept apart here. Each block holds one molecule with its values, some of them ahead of it.

Key:
Type in all cases: binding
[1] = target: T1, BRD4-D2 (Homo sapiens, UniProt O60885); assay: Fluorescence anisotropy competition with Fl-JQ1
T1 construct: the second bromodomain of BRD4 (residues 333-460); host or cells: E. coli BL21 Star (DE3)

[2] = target: T2, BRD4-D1 (Homo sapiens, UniProt O60885); assay: Fluorescence anisotropy competition with Fl-JQ1
T2 construct: His6 BRD4 D1 were expressed and purified as reported by A. K. Urick; His6; made in house

[3] = target: T3, p38α (Homo sapiens, UniProt Q16539); assay: p38 competitive inhibition assay (KINOMEscan, Eurofins DiscoverX); details: mean of two biological replicates
T3 construct: phage display fusion; purchased Eurofins DiscoverX (Fremont California), KINOMEscan service

[4] = target: T4, His9-BRD4 D1 (Homo sapiens, UniProt O60885); assay: AlphaScreen assay with His9-BRD4 D1; details: mean of two technical replicates
T4 construct: 7.5-60 nM for His9-tagged BRD4 D1; made in house; host or cells: E. coli BL21(DE3) with pRARE

[5] = mean and standard deviation of three independent trials, read-out: IC50 BRD4-D1
[6] = mean and SEM of three biological replicates, read-out: BRD4 D1 IC50 by FA

T3 sequence (Q16539 whole entry, the tested form may be a part): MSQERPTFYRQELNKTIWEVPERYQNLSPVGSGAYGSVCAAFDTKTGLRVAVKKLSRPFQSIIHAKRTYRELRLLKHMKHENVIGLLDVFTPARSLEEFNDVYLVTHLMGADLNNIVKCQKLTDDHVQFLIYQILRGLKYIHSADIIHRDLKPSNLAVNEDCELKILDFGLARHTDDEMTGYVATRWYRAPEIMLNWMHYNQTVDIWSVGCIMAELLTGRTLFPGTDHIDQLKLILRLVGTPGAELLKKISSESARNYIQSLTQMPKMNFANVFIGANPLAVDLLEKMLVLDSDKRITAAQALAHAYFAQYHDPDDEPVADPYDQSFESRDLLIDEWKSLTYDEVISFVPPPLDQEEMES

IC50 [1]: 5.87 µM | IC50 [2, 5]: 3.01 µM
Structure (SMILES): Cc1cc(C)cc(Oc2nccc(-c3c(C)nnn3C3CCNCC3)n2)c1

IC50 [2, 6]: > 100 µM
Structure (SMILES): Cc1cc(C)cc(Oc2nccc(-c3c(C(C)C)nnn3C3CCNCC3)n2)c1

IC50 [2, 6]: > 100 µM
Structure (SMILES): CCCc1nnn(C2CCNCC2)c1-c1ccnc(Oc2cc(C)cc(C)c2)n1

IC50 [2, 6]: > 100 µM
Structure (SMILES): Cc1cc(C)cc(Oc2cncc(-c3c(C)nnn3C3CCNCC3)c2)c1

IC50 [2, 6]: 97 ± 2.6 µM
Structure (SMILES): Cc1cc(C)cc(Oc2cc(-c3c(C)nnn3C3CCNCC3)ccn2)c1

IC50 [2, 6]: > 100 µM
Structure (SMILES): Cc1cc(C)cc(Oc2ccnc(-c3c(C)nnn3C3CCNCC3)c2)c1

Kd [3]: > 0.025 µM | IC50 [2, 6]: 4.5 ± 0.35 µM
Structure (SMILES): Cc1cc(C)cc(Nc2cccc(-c3c(C)nnn3C3CCNCC3)n2)c1

Kd [3]: 0.12 ± 0.051 µM | IC50 [2, 6]: > 100 µM
Structure (SMILES): Cc1cc(C)cc(Nc2nccc(-c3c(-c4ccc(F)cc4)nnn3C3CCNCC3)n2)c1

IC50 [2, 6]: 61 ± 8.1 µM
Structure (SMILES): Cc1cc(C)cc(Oc2nccc(-c3c(C4CC4)nnn3C3CCN(C(=N)N)CC3)n2)c1

IC50 [2, 6]: 4.5 ± 0.35 µM
Structure (SMILES): Cc1cc(C)cc(Nc2cccc(-c3c(C)nnn3C3CCN(C(=N)N)CC3)n2)c1

IC50 [2, 6]: 1.2 ± 0.2 µM | IC50 [4]: 1.1 µM
Structure (SMILES): Cc1ccc(-c2ncn(C3CCNCC3)c2-c2ccnc(Nc3cc(C)cc(C)c3)n2)cc1

IC50 [2, 6]: 1.6 µM | IC50 [4]: 1.4 µM
Structure (SMILES): Cc1cc(C)cc(Nc2nccc(-c3c(-c4ccc(Cl)cc4)ncn3C3CCN(C(=N)N)CC3)n2)c1

IC50 [2, 6]: 4.5 ± 0.2 µM | IC50 [4]: 2.6 µM
Structure (SMILES): Cc1cc(C)cc(Nc2nccc(-c3c(-c4ccccc4)ncn3C3CCNCC3)n2)c1

IC50 [2, 6]: 1.3 ± 0.2 µM
Structure (SMILES): Cc1ccc(Nc2nccc(-c3c(-c4ccc(F)cc4)ncn3C3CCNCC3)n2)cc1C

IC50 [2, 6]: > 250 µM
Structure (SMILES): Fc1ccc(-c2ncn(C3CCNCC3)c2-c2ccnc(Oc3cc(F)cc(F)c3)n2)cc1

IC50 [4]: 160 µM
Structure (SMILES): Cc1cc(C)cc(Nc2nccc(-c3c(CO)nnn3C3CCNCC3)n2)c1

IC50 [2, 6]: 0.15 ± 0.03 µM | IC50 [4]: 0.2 µM
Structure (SMILES): Cc1cc(C)cc(Nc2nccc(-c3c(-c4ccc(C(F)(F)F)cc4)ncn3C3CCN(CCN(C)C)CC3)n2)c1

IC50 [2, 6]: 0.42 ± 0.01 µM | IC50 [4]: 1.5 µM
Structure (SMILES): CC(=O)NCCN1CCC(n2cnc(-c3ccc(C(F)(F)F)cc3)c2-c2ccnc(Nc3cc(C)cc(C)c3)n2)CC1

Kd [3]: > 30 µM | IC50 [2, 6]: 1.1 ± 0.01 µM | IC50 [4]: 1.3 µM
Structure (SMILES): Cc1cc(C)cc(Oc2cccc(-c3c(-c4ccc(C(F)(F)F)cc4)ncn3C3CCN(CCN)CC3)n2)c1

IC50 [2, 5]: 9.7 ± 1.8 µM
Structure (SMILES): Cc1cc(C)cc(Oc2nccc(-c3c(C)nnn3C3CCN(C(=N)N)CC3)n2)c1 [drawing 179]

IC50 [2, 5]: 12 ± 1.1 µM
Structure (SMILES): Cc1cc(C)cc(Oc2cccc(-c3c(C)nnn3C3CCN(C(=N)N)CC3)c2)c1 [drawing 180]

IC50 [2, 5]: 3.6 ± 0.05 µM
Structure (SMILES): Cc1cc(C)cc(Oc2cccc(-c3c(C)nnn3C3CCN(C(=N)N)CC3)n2)c1 [drawing 181]

IC50 [2, 5]: 97 ± 2.6 µM
Structure (SMILES): Cc1cc(C)cc(Oc2cc(-c3c(C)nnn3C3CCN(C(=N)N)CC3)ccn2)c1 [drawing 182]

IC50 [2, 5]: > 100 µM
Structure (SMILES): Cc1cc(C)cc(Oc2ccnc(-c3c(C)nnn3C3CCN(C(=N)N)CC3)c2)c1 [drawing 184]

IC50 [1]: 4.76 µM
Structure (SMILES): Cc1cc(Oc2cccc(-c3c(C)nnn3C3CCNCC3)n2)cc(C(C)C)c1 [drawing 187]

IC50 [1]: 7.35 µM | IC50 [2, 5]: 3.21 ± 0.3 µM
Structure (SMILES): CCC(C)c1cc(C)cc(Oc2cccc(-c3c(C)nnn3C3CCNCC3)n2)c1 (centres unmarked) [drawing 188]

IC50 [1]: 7.35 µM | IC50 [2, 5]: 4.44 µM
Structure (SMILES): Cc1cc(Oc2cccc(-c3c(C)nnn3C3CCNCC3)n2)cc(C2CCCC2)c1 [drawing 189]

IC50 [1]: 27.7 µM | IC50 [2, 5]: 8.61 µM
Structure (SMILES): CCCCc1cc(CCCC)cc(Oc2cccc(-c3c(C)nnn3C3CCNCC3)n2)c1 [drawing 195]

IC50 [2, 5]: 62.6 µM
Structure (SMILES): Cc1nnn(C2CCNCC2)c1-c1cccc(Oc2cc(C3CCCCC3)cc(C3CCCCC3)c2)n1 [drawing 197]

IC50 [1]: 45.6 µM
Structure (SMILES): Cc1nnn(C2CCNCC2)c1-c1cccc(Oc2cc(C(F)(F)F)cc(C(F)(F)F)c2)n1 [drawing 199]

IC50 [2, 6]: 9.7 ± 1.8 µM
Structure (SMILES): Cc1cc(C)cc(Oc2nccc(-c3c(C)nnn3C3CCN(C(=N)N)CC3)n2)c1 [drawing 222]

IC50 [2, 6]: 12 ± 1.1 µM
Structure (SMILES): Cc1cc(C)cc(Oc2cccc(-c3c(C)nnn3C3CCN(C(=N)N)CC3)c2)c1 [drawing 223]

IC50 [2, 6]: 3.6 ± 0.05 µM
Structure (SMILES): Cc1cc(C)cc(Oc2cccc(-c3c(C)nnn3C3CCN(C(=N)N)CC3)n2)c1 [drawing 224]

IC50 [2, 6]: 97 ± 2.6 µM
Structure (SMILES): Cc1cc(C)cc(Oc2cc(-c3c(C)nnn3C3CCN(C(=N)N)CC3)ccn2)c1 [drawing 225]

IC50 [2, 6]: > 100 µM
Structure (SMILES): Cc1cc(C)cc(Oc2ccnc(-c3c(C)nnn3C3CCN(C(=N)N)CC3)c2)c1 [drawing 227]

IC50 [4]: 4.76 µM
Structure (SMILES): Cc1cc(Oc2cccc(-c3c(C)nnn3C3CCNCC3)n2)cc(C(C)C)c1 [drawing 251]

IC50 [2, 6]: 3.21 ± 0.3 µM | IC50 [4]: 7.35 µM
Structure (SMILES): CCC(C)c1cc(C)cc(Oc2cccc(-c3c(C)nnn3C3CCNCC3)n2)c1 (centres unmarked) [drawing 252]

IC50 [2, 6]: 4.44 µM
Structure (SMILES): Cc1cc(Oc2cccc(-c3c(C)nnn3C3CCNCC3)n2)cc(C2CCCC2)c1 [drawing 253]

IC50 [2, 6]: 8.61 µM | IC50 [4]: 27.7 µM
Structure (SMILES): CCCCc1cc(CCCC)cc(Oc2cccc(-c3c(C)nnn3C3CCNCC3)n2)c1 [drawing 259]

IC50 [2, 6]: 62.6 µM
Structure (SMILES): Cc1nnn(C2CCNCC2)c1-c1cccc(Oc2cc(C3CCCCC3)cc(C3CCCCC3)c2)n1 [drawing 261]

IC50 [4]: 45.6 µM
Structure (SMILES): Cc1nnn(C2CCNCC2)c1-c1cccc(Oc2cc(C(F)(F)F)cc(C(F)(F)F)c2)n1 [drawing 263]
